Assay results: patent US20260275280A1, “DIRECTED DIFFERENTIATION PROTOCOLS TO DERIVE BONE FIDE SPINAL SENSORY INTERNEURONS” (THE REGENTS OF THE UNIVERSITY OF CALIFORNIA, priority 2022, published 2026)

Tests used:
[1] = system: mESCs-derived NMPs / NPCs; assay: Bulk RNA-Seq differential expression and qRT-PCR after RA or RA+BMP4 treatment; type: cell-based, mouse
Protocol: Bulk-RNA sequencing and data processing: Total cell lysate was obtained in buffer RLT (Qiagen) at different time points from three independent differentiations (biological replicates) conducted parallelly. RNA extraction was performed using RNeasy mini kit (Qiagen) and the quality was determined using Agilent Technologies 2100 Bioanalyzer and only samples with a RIN score >8.0 were sequenced. Stranded libraries were constructed using Universal plus mRNA sequencing kit (NuGEN) and sequenced onto 2 lanes of NovaseqS1 to generate 30 million reads/sample. Obtained reads were aligned to the latest mouse reference genome (mm10) using the STAR spliced read aligner. Pearson correlation and principal component analysis (PCA) was performed to determine the similarities among the samples and replicates. Differentially expressed genes were identified using DESeq and EdgeR package on R platform. The candidate genes were selected using cutoff false discovery rate (FDR <0.05) and log fold change (>2). Differentially expressed gene lists were further subjected to Enrichr, Metascape (Zhou et al., 2019) and DAVID functional annotation tools to identify enriched gene ontology (GO) categories.
Quantitative (a) RT-PCR analysis: RNA was isolated with RNeasy Mini Kit (Qiagen, cat no. 74104), and converted to cDNA using Superscript IV First Strand Synthesis kit (Thermo Fisher Scientific). qRT-PCR was performed using SYBR Green PCR Master Mix (Applied Biosystems) on Roche 480 Lightcycler (Roche). The relative fold expression was calculated using 2-AACt method of comparing the expression of the target gene with that of the housekeeping gene glyceraldehyde 3-phosphate dehydrogenase (Gapdh). All experiments were repeated at least 2-3 times (technical replicates) from at least two independent differentiations (biological replicates), and data is represented as mean±SEM.
We took advantage of the directed differentiation protocols to investigate the unresolved mechanisms by which RA and BMP direct dI fate specification. To further validate the use of a stem cell model, we first assessed the genetic basis of the fate decisions mediated by RA signaling. During the 24 hr pulse of RA at day 3, Pax3 levels gradually increase, while T expression concomitantly declines (FIG. 12A). […] To identify the transcriptional changes occurring during this first commitment step, we performed bulk RNA-Seq at day 3 (NMP state), day 3.25 (early transcriptional response to RA) and day 4 (dP state1) (FIG. 11B).
We hypothesized that the addition of BMP4 to NPCs in dP state1, directs them to a more dorsal dP state, i.e. dP state2 (FIG. 11A). To define the transcriptional changes occurring after BMP4 addition, we performed bulk RNA-Seq at day 4 (dP state1), day 4.25 (early transcriptional response to RA+BMP4) and at day 5 (dP state2) (FIG. 4A). […] 78 genes, out of 411, were common between both time points (FIGS. 4B, 13B). Focusing on these common genes, we identified enriched functional processes using GO analyses. The GO terms included the BMP signaling pathway (FIG. 4C, Table 3), confirming that the analysis identified BMP responsive genes.

mESC-derived NPCs = assay: Expansion culture: serial passaging of RA±BMP4 patterned EBs in CHIR or DMSO; type: cell-based, mouse
Protocol: For expansion cultures. EBs were dissociated in single cell suspension at day 6 by treating with 0.25% Trypsin, followed by trituration to break up the larger cell clumps. Cells were pelleted and passaged in N2/B27 medium containing either DMSO or 5 μM CHIR at 1:3 dilution. Media was changed at every third day during the expansion culture.
Finally, we assessed whether the mitogenic properties of Wnt signaling can be leveraged to expand the pool of mESC-derived NPCs. RA±BMP4 patterned EBs were serially passaged at 1:3 dilution […] in the presence of DMSO (control) or CHIR (FIG. 7A).
Embryonic stem cells are first directed to a day 4 neural precursor cell (NPC) state, and then Wnt signaling is continually switched on using CHIR, which starts the process of proliferation. The cells are then passaged every 6 days. with a 1:3 split. Control NPCs die almost immediately, while “expanded” cells keep dividing for as long as they have been passaged to date (three months). These NPCs can then be differentiated. Differentiation of the expanded cultures without any further signals yields dI3s and dI5s. A further pulse for two days with RA (day 3-5), produces dI4, dI5 and dI6. Pulsing them with RA+BMP4, yields dI1, dI2 and dW3.
Thus, a method of keeping dorsal progenitors (dPs) in a proliferative state for many passages (perhaps indefinitely) is provided. The proliferative state can be maintained without changing the fate potential of the dPs. mESCs are first patterned according to either the RA or RA+BMP4 protocol, up to day 6. After patterning, the dPs are then reintroduced to medium containing CHIR (Wnt agonist, that stimulates Wnt signaling). The CHIR-treated cultures can then serially expand 3-fold every 6 days (a passage), unlike control (DMSO-treated) cells, which start dying at passage 2 (FIG. 7). To date we have expanded dPs for 7-8 passages, i.e. a couple of months.

hESCs/hiPSCs = assay: Induction of NMPs from hPSCs in 2D culture (FGF2, CHIR99021); type: cell-based, human; details: N2/B27 with FGF2 and CHIR99021, up to day 6
Protocol: Add 2 mL N2/B27 media containing 10ng of FGF2 and SuM of CHIR99021 (Wnt signaling agonist) to each well of the 6-well plate and return the plate to the incubator. Feed cells every other day with N2/B27 media for up to 6 days. Cells should appear as a monolayer with cells packed together tightly at the end of day 6 (FIG. 16A). This confluency is optimal for embryoid body (EB) formation in the next step.

[2] = 6 hrs of RA treatment (day 3.25) vs day 3 NMP state
[3] = 24 hours of RA exposure (day 4) vs day 3

Compound: CC1=C(/C=C/C(C)=C/C=C/C(C)=C/C(=O)O)C(C)(C)CCC1 [RA, retinoic acid]
- genes significantly downregulated [1, 2]: 19 genes
- genes significantly upregulated [1, 2]: 138 genes
- genes significantly downregulated [1, 3]: 590 genes
- genes significantly upregulated [1, 3]: 389 genes
- genes upregulated compared to day 4 control (no RA treatment) ([1]; 24 hr treatment of 100 nM RA): 911 genes
- genes whose expression levels are altered in total ([1]; day 3, day 3.25, day 4 of RA treatment): 979 genes

Compound: Cc1c[nH]c(-c2cnc(NCCNc3ccc(C#N)cn3)nc2-c2ccc(Cl)cc2Cl)n1 [CHIR, CHIR99021]
- EB size over three consecutive passages (mESC-derived NPCs; CHIR vs DMSO, RA and RA+BMP4 patterned EBs): decrease in EB size
- Sox2+ NPC identity after passaging (mESC-derived NPCs; CHIR-treated EBs): remained Sox2^+ after multiple passages
- serial expansion of CHIR-treated cultures every 6 days (a passage) (mESC-derived NPCs; Example 2): 3 fold
- increase in the number of EBs after each passage compared to DMSO-treated EBs (mESC-derived NPCs; RA- and RA+BMP4-treated EBs): > 6 fold
- increase in the number of CHIR-treated EBs by the third passage (mESC-derived NPCs; passaged 1:3 every 7 days): 3- to 6 fold
- growth rate of the hPSC/NMP monolayer (hESCs/hiPSCs): induces a higher growth rate in the monolayer
